The values below come from US8791102B2, “Acetanilide sphingosine-1-phosphate receptor antagonists” (Exelixis, Inc., priority 2008, dated 2014).

For the assay, the target named is T1, human S1P1 receptors (Homo sapiens, UniProt P21453).
T1 construct: host or cells: HEK293
Nature of the assay: S1P1R antagonist assay (fluorescent membrane potential dye, cAMP readout). In kind it is cell-based. Particulars: HEK293 cells expressing human S1P1 receptors and CNG channel; 500 nM NECA; S1P1R agonist 10 nM; 90 minutes; read-out: EC50 or IC50 value.

T1 sequence (P21453 whole entry): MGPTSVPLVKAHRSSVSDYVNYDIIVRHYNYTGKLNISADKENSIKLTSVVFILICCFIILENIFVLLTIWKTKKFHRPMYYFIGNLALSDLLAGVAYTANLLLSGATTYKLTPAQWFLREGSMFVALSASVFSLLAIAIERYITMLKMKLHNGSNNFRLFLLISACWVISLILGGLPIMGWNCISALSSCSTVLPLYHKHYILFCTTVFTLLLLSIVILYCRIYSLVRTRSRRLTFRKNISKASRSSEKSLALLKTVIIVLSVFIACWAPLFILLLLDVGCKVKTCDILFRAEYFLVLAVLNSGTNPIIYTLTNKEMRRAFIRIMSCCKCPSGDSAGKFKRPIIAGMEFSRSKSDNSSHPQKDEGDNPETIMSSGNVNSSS

In general, IC50 refers to the concentration at which inhibition is half-maximal. As to `O=C(Nc1ccc(Oc2ccc(F)cc2)cc1)[C@@H]1C[C@@H](Cc2cccc(F)c2)CN1C(=O)Cn1nccn1` [Compound 49, (2S,4R)-1-(2-(2H-1,2,3-triazol-2-yl)acetyl)-4-(3-fluorobenzyl)-N-(4-(4-fluorophenoxy)phenyl)pyrrolidine-2-carboxamide], the IC50 was ≤ 300 nM.

Consider `O=C(NC(COCc1ccccc1)C(=O)Nc1ccc(Oc2ccccc2)cc1)c1cccs1` (stereo not drawn) [Compound 292, N-(2-oxo-1-{[(phenylmethyl)oxy]methyl}-2-{[4-(phenyloxy)phenyl]amino}ethyl)thiophene-2-carboxamide], for which the half-inhibitory concentration (IC50) was > 1000 nM.

On to `O=C(NC(COCc1ccccc1)C(=O)Nc1ccc(Oc2ccccc2)cc1)c1cc2ccccc2o1` (stereo not drawn) [Compound 366, N-(2-oxo-1-{[(phenylmethyl)oxy]methyl}-2-{[4-(phenyloxy)phenyl]amino}ethyl)-1-benzofuran-2-carboxamide], for which the IC50 was > 1000 nM.

`O=C(NC(COCc1ccccc1)C(=O)Nc1ccc(Oc2ccccc2)cc1)C1CCN(c2nccc(C(F)(F)F)n2)CC1` (stereo not drawn) [Compound 302, N-(2-oxo-1-{[(phenylmethyl)oxy]methyl}-2-{[4-(phenyloxy)phenyl]amino}ethyl)-1-[4-(trifluoromethyl)pyrimidin-2-yl]piperidine-4-carboxamide]: the 50% inhibitory concentration (IC50) is > 1000 nM.

Consider `COc1ccccc1N1CCN(CC(=O)N[C@@H](COCc2ccccc2)C(=O)Nc2ccc(Oc3ccc(F)cc3)cc2)CC1` [Compound 217, (S)-3-(benzyloxy)-N-(4-(4-fluorophenoxy)phenyl)-2-(2-(4-(2-methoxyphenyl)piperazin-1-yl)acetamido)propanamide], for which the IC50 was 300 to 1000 nM.

For `O=C(CCCC(=O)c1cccs1)NC(COCc1ccccc1)C(=O)Nc1ccc(Oc2ccccc2)cc1` (stereo not drawn) [Compound 323, 5-oxo-N-(2-oxo-1-{[(phenylmethyl)oxy]methyl}-2-{[4-(phenyloxy)phenyl]amino}ethyl)-5-(2-thienyl)pentanamide], the IC50 is 300 to 1000 nM.

Take `O=C(Nc1ccc(Oc2ccc(F)cc2)cc1)[C@@H]1C[C@@H](Cc2cccc(Cl)c2)CN1C(=O)Cn1ccnn1` [Compound 263, (2S,4R)-1-(2-(1H-1,2,3-triazol-1-yl)acetyl)-4-(3-chlorobenzyl)-N-(4-(4-fluorophenoxy)phenyl)pyrrolidine-2-carboxamide]: the IC50 is ≤ 300 nM.

Turning to `O=C(Cc1cccs1)NC(COCc1ccccc1)C(=O)Nc1ccc(Oc2ccccc2)cc1` (stereo not drawn) [Compound 293, N-(2-oxo-1-{[(phenylmethyl)oxy]methyl}-2-{[4-(phenyloxy)phenyl]amino}ethyl)thien-2-ylacetamide], the IC50 is > 1000 nM.

Take `N#CCC(=O)N1C[C@H](Cc2ccccc2)C[C@H]1C(=O)Nc1ccc(Oc2ccc(F)cc2)cc1` [Compound 129, (2S,4R)-4-benzyl-1-(2-cyanoacetyl)-N-(4-(4-fluorophenoxy)phenyl)pyrrolidine-2-carboxamide]: the IC50 is ≤ 300 nM.

As to `O=C(Nc1ccc(Oc2ccc(F)cc2)cc1)[C@@H]1C[C@@H](Cc2ccc(F)c(F)c2)CN1C(=O)Cn1ccnn1` [Compound 226, (2S,4R)-1-(2-(1H-1,2,3-triazol-1-yl)acetyl)-4-(3,4-difluorobenzyl)-N-(4-(4-fluorophenoxy)phenyl)pyrrolidine-2-carboxamide], the IC50 is ≤ 300 nM.

Take `Cn1cnc(CC(=O)N[C@@H](COCc2ccccc2)C(=O)Nc2ccc(Oc3ccccc3)cc2)c1` [Compound 195, (S)-2-(2-(1-methyl-1H-imidazol-4-yl)acetamido)-3-benzyloxy-N-(4-phenoxyphenyl)propanamide]: the IC50 is ≤ 300 nM.

On to `O=C(Nc1ccc(Oc2ccc(F)cc2)cc1)[C@@H]1C[C@@H](Cc2ccccc2F)CN1C(=O)Cn1ccnn1` [Compound 264, (2S,4R)-1-(2-(1H-1,2,3-triazol-1-yl)acetyl)-4-(2-fluorobenzyl)-N-(4-(4-fluorophenoxy)phenyl)pyrrolidine-2-carboxamide], for which the IC50 was ≤ 300 nM.
